Test system: A2780 (human ovarian cancer)
Assay: Antiproliferative activity against drug-sensitive human A2780 cells

| SMILES | IC50 |
| --- | --- |
| COc1cc(/C=C/c2cc(O)c3c(c2)OC(C)(C)C(O)C3)cc2c1O[C@]1(C)C[C@@H](O)[C@@H](O)C(C)(C)[C@H]1C2 (some centres not stated) [SCHWEINFURTHIN H] | 4.5 µM |
| CC(C)=CCc1c(O)cc(/C=C/c2cc(O)c3c(c2)C[C@@H]2C(C)(C)[C@H](O)CC[C@@]2(C)O3)cc1O [SCHWEINFURTHIN G] | 0.39 µM |
